Reference: US6451781B1, “Substituted acylguanidines, process for their preparation, their use as medicaments or diagnostics, and medicaments comprising them” (Aventis Pharma Deutschland GmbH, priority 1999, dated 2002)

Tests used:
[1] = target: T1, human Na+/H+ exchanger (subtype 3; NHE-3) (Homo sapiens, UniProt P48764); test: Inhibition of the NHE antiport subtype 3: intracellular pH recovery after acid load (BCECF) in stably transfected LAP1 cells; type: cell-based; conditions: human NHE-3, pH recovery in % of maximum recovery, read-out: Residual activity at 30 μM
T1 construct: expressed in transfected cells; host or cells: LAP1 cells (NHE-deficient), stably transfected with pMAMneo plasmid
T1 sequence (P48764 26-834): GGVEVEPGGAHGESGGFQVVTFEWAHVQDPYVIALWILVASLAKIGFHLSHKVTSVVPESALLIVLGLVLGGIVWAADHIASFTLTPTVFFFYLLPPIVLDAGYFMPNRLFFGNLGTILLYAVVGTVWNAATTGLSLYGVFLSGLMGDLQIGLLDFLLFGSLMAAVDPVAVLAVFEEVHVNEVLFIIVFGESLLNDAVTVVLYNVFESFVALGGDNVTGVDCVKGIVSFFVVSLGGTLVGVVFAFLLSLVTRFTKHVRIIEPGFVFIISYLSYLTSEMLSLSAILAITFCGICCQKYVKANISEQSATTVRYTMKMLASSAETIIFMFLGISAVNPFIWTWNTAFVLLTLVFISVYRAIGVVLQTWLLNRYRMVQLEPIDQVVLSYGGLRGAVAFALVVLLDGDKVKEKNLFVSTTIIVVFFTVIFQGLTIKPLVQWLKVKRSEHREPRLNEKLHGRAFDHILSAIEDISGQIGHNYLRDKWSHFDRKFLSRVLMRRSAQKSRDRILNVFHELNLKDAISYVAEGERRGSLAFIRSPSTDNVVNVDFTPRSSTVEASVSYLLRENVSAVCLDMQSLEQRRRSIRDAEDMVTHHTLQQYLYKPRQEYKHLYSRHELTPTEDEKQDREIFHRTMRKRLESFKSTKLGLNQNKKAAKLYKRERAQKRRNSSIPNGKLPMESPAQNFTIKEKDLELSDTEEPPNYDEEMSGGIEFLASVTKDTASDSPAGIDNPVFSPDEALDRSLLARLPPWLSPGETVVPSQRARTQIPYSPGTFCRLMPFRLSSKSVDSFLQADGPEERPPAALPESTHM
Method: The absorption of water from the gall bladder is inhibited by inhibition of the apical NHE antiport of the subtype 3 of the gall bladder epithelium, which results in a dilute bile fluid. This dilute bile fluid prevents gallstone formation and, if gallstones are already present, brings about their dissolution. The inhibition of the NHE antiport of the subtype 3 by the compounds of the formula I according to the invention was determined by means of the following test.
Most of the molecular bilology techniques follow protocols from the works “Current Protocols in Molecular Biology (eds. Ausubel, F. M., Brent, R., Kingston, R. E., Moore, D. D., Seidman, J. G., Smith, J. A. and Struhl, K.; John Wiley & Sons)” and “Molecular Cloning: A Laboratory Manual (Sambrock, J., Fritsch, E. F. und Maniatis, T.; Cold Spring Harbor Laboratory Press (1989))”. […] In this test, the increase in the intracellular pH (pHi) after an acidification was determined which commenced with functional NHE even under bicarbonate-free conditions. For this, the pHi was determined using the pH-sensitive fluorescent dye BCECF (Calbiochem, the precursor BCECF-AM is employed). […] The BCECF fluorescence was determined in a “ratio fluorescence spectrometer” (Photon Technology International, South Brunswick, N.J., USA) at excitation wavelengths of 505 and 440 nm and an emission wavelength of 535 nm and converted into the pHi by means of calibration curves. […]

Structure (SMILES)	remaining activity at 30 µM [1]	melting point
C/C(=C\c1cc(F)c(Oc2ccc(CC(=O)NCCO[C@H]3CC[C@@]4(C)[C@@H](C3)C[C@@H](O)[C@@H]3[C@@H]4C[C@H](O)[C@]4(C)[C@@H]([C@H](C)CCC(=O)O)CC[C@@H]34)cc2)c(F)c1)C(=O)N=C(N)N (stereo in doubt) [Example 1, 4-{3-[2-(2-{4-[2,6-Difluoro-4-(3-guanidino-2-methyl-3-oxopropenyl)phenoxy]phenyl}acetylamino)ethoxy]-7,12-dihydroxy-10,13-dimethylhexadecahydro-cyclopenta[a]phenanthren-17-yl}pentanoic acid]	17%	–
C/C(=C\C(=O)N=C(N)N)c1cc(F)c(Oc2ccc(CC(=O)N[C@H]3CC[C@@]4(C)[C@@H](C3)C[C@@H](O)[C@@H]3[C@@H]4C[C@H](O)[C@]4(C)[C@@H]([C@H](C)CCC(=O)O)CC[C@@H]34)cc2)c(F)c1 (stereo in doubt) [Example 2, 4-[3-(2-{4-[2,6-Difluoro-4-(3-guanidino-1-methyl-3-oxopropenyl)phenoxy]phenyl}acetylamino)-7,12-dihydroxy-10,13-dimethylhexadecahydrocyclopenta[a]phenanthren-17-yl]pentanoic acid]	10%	190 °C (dec.)
C[C@H](CCC(=O)O)[C@H]1CC[C@H]2[C@@H]3[C@H](O)C[C@@H]4C[C@@H](OCCNC(=O)c5cccc(-c6ccc(C(=O)N=C(N)N)cc6)c5)CC[C@]4(C)[C@H]3C[C@H](O)[C@]12C (stereo in doubt) [Example 3, 4-(3-{2-[(4′-Guanidinocarbonylbiphenyl-3-carbonyl)amino]ethoxy}-7,12-dihydroxy-10,13-dimethylhexadecahydrocyclopenta[a]phenanthren-17-yl)pentanoic acid]	65%	–
